These molecules were tested against Serine/threonine-protein kinase 26 (Homo sapiens) (UniProt Q9P289).
Sequence of Serine/threonine-protein kinase 26 (Homo sapiens) (Q9P289 2-416 limits assumed): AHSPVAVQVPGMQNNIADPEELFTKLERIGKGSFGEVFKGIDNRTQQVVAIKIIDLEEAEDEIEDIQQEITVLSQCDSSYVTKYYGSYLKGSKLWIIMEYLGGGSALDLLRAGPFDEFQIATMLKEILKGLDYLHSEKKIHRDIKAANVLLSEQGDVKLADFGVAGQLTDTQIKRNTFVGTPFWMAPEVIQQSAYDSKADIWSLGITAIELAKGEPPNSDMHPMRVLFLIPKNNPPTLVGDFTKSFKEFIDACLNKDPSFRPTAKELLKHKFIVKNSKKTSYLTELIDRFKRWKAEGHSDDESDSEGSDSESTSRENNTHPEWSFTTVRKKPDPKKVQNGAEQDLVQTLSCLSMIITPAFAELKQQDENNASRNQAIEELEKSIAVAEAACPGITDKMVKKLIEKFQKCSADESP
In the case of `CCN(CC)CCNC(=O)c1c(C)[nH]c(/C=C2\C(=O)Nc3ccc(Cl)cc32)c1C` [SU-11652], the ΔTm was 3.8 °C.
For `COc1cc(O)c2c(c1)oc(=O)c1c3cc(O)c(O)cc3oc21` [WEDELOLACTONE], the ΔTm was 1.4 °C.
For `COc1ccc2c(c1)/C(=C/c1cnc[nH]1)C(=O)N2` [SU-9516], the ΔTm was 4.2 °C.

These molecules were tested against Serine/threonine-protein kinase PAK 6 (Homo sapiens) (UniProt Q9NQU5).
Sequence of Serine/threonine-protein kinase PAK 6 (Homo sapiens) (Q9NQU5 whole entry, looked up): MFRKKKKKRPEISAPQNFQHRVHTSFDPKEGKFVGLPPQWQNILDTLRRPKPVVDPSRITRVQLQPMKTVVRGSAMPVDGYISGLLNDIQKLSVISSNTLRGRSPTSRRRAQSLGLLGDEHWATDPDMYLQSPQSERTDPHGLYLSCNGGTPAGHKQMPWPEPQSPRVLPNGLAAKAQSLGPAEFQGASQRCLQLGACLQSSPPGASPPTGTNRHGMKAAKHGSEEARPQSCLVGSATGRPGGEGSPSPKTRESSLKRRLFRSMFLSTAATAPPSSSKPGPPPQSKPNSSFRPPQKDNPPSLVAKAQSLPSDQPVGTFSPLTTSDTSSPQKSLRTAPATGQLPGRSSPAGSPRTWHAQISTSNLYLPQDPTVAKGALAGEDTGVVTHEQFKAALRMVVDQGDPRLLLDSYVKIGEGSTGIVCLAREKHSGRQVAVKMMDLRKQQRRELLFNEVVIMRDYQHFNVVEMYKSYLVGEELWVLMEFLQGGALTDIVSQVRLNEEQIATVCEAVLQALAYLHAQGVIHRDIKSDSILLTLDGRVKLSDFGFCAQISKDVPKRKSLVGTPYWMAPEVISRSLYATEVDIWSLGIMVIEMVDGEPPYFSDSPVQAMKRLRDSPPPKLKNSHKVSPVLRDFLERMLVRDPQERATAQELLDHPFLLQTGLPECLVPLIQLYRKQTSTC
Molecule `CCN(CC)CCNC(=O)c1c(C)[nH]c(/C=C2\C(=O)Nc3ccc(Cl)cc32)c1C` [SU-11652] has a ΔTm of 4.4 °C.
Work on `COc1cc(O)c2c(c1)oc(=O)c1c3cc(O)c(O)cc3oc21` [WEDELOLACTONE] yielded a ΔTm of -0.6 °C.
Molecule `COc1ccc2c(c1)/C(=C/c1cnc[nH]1)C(=O)N2` [SU-9516] has a ΔTm of 2.3 °C.

Each molecule was assayed against Calcium/calmodulin-dependent protein kinase kinase 2 (Homo sapiens, UniProt Q96RR4).
`CCN(CC)CCNC(=O)c1c(C)[nH]c(/C=C2\C(=O)Nc3ccc(Cl)cc32)c1C` [SU-11652] showed a ΔTm of 7.9 °C.
Molecule `COc1cc(O)c2c(c1)oc(=O)c1c3cc(O)c(O)cc3oc21` [WEDELOLACTONE] has a ΔTm of 2.3 °C.
Work on `COc1ccc2c(c1)/C(=C/c1cnc[nH]1)C(=O)N2` [SU-9516] yielded a ΔTm of 2.8 °C.

The molecules below were run against Serine/threonine-protein kinase pim-2 (Homo sapiens, UniProt Q9P1W9).
Sequence of Serine/threonine-protein kinase pim-2 (Q9P1W9 whole entry, looked up): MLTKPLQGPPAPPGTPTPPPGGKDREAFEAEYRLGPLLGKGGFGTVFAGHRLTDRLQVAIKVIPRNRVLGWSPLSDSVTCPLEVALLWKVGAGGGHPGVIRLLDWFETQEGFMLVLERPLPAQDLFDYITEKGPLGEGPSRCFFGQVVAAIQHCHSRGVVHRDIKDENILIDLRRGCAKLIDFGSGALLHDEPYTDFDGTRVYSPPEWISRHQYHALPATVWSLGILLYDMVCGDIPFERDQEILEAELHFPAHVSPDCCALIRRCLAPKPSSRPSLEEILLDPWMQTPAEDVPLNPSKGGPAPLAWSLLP
Molecule `CCN(CC)CCNC(=O)c1c(C)[nH]c(/C=C2\C(=O)Nc3ccc(Cl)cc32)c1C` [SU-11652] has a ΔTm of 2.3 °C.
Molecule `COc1cc(O)c2c(c1)oc(=O)c1c3cc(O)c(O)cc3oc21` [WEDELOLACTONE] has a ΔTm of 2.2 °C.
`COc1ccc2c(c1)/C(=C/c1cnc[nH]1)C(=O)N2` [SU-9516] was tested, and the ΔTm was 1.7 °C.

Each molecule was assayed against T1, Mitogen-activated protein kinase kinase kinase 5 (Homo sapiens) (UniProt Q99683).
T1 sequence (whole entry): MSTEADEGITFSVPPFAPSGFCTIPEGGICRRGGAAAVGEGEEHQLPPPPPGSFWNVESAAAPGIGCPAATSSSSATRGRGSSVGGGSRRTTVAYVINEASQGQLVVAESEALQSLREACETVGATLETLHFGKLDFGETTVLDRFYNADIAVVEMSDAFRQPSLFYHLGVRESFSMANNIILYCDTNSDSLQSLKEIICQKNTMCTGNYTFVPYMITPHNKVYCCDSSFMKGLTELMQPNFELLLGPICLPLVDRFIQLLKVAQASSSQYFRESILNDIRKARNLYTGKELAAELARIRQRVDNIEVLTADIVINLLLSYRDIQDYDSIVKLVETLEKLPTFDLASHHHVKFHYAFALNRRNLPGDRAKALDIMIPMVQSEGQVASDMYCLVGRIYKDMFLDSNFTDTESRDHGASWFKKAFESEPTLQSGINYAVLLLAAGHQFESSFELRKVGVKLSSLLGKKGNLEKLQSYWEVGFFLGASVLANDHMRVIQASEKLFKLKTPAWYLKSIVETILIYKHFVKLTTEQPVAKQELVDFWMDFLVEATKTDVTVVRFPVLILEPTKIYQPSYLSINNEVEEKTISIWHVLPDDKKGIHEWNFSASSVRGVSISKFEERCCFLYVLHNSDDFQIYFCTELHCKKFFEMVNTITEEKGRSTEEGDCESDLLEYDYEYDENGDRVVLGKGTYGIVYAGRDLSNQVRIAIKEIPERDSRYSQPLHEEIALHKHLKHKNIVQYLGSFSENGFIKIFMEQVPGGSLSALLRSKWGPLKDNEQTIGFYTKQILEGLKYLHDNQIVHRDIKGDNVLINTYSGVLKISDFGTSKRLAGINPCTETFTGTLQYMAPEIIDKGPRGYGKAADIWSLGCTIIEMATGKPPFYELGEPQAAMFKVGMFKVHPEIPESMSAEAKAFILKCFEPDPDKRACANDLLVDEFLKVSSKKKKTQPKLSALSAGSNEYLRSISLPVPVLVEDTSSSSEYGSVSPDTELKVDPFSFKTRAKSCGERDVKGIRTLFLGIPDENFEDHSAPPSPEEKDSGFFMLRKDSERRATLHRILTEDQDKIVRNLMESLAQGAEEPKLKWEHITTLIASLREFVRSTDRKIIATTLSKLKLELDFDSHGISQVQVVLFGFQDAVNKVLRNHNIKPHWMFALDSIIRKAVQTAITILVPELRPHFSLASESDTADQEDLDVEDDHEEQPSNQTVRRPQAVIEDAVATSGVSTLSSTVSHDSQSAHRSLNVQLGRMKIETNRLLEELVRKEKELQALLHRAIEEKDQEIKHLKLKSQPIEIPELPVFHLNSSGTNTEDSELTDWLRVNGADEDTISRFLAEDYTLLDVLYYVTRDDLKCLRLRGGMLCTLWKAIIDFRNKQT
For `CCN(CC)CCNC(=O)c1c(C)[nH]c(/C=C2\C(=O)Nc3ccc(Cl)cc32)c1C` [SU-11652], the ΔTm was 6.3 °C.
In the case of `COc1cc(O)c2c(c1)oc(=O)c1c3cc(O)c(O)cc3oc21` [WEDELOLACTONE], the ΔTm was 0.8 °C.
`COc1ccc2c(c1)/C(=C/c1cnc[nH]1)C(=O)N2` [SU-9516] was tested, and the ΔTm was 5.4 °C.

Each molecule was assayed against Serine/threonine-protein kinase Nek6 (Homo sapiens) (UniProt Q9HC98).
Sequence of Serine/threonine-protein kinase Nek6 (Homo sapiens) (Q9HC98 whole entry): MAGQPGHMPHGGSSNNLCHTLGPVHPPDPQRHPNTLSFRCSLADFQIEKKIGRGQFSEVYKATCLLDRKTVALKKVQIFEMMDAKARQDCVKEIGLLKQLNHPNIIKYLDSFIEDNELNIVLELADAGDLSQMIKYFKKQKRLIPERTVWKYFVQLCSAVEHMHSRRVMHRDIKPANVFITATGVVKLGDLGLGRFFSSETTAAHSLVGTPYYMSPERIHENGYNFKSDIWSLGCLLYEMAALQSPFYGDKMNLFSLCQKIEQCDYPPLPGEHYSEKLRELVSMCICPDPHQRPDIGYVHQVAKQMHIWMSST
Molecule `CCN(CC)CCNC(=O)c1c(C)[nH]c(/C=C2\C(=O)Nc3ccc(Cl)cc32)c1C` [SU-11652] has a ΔTm of -0.8 °C.
For `COc1cc(O)c2c(c1)oc(=O)c1c3cc(O)c(O)cc3oc21` [WEDELOLACTONE], the ΔTm was 0.4 °C.
Work on `COc1ccc2c(c1)/C(=C/c1cnc[nH]1)C(=O)N2` [SU-9516] yielded a ΔTm of 0.1 °C.

These molecules were tested against T2, Serine/threonine-protein kinase VRK3 (Homo sapiens) (UniProt Q8IV63).
T2 sequence (whole entry): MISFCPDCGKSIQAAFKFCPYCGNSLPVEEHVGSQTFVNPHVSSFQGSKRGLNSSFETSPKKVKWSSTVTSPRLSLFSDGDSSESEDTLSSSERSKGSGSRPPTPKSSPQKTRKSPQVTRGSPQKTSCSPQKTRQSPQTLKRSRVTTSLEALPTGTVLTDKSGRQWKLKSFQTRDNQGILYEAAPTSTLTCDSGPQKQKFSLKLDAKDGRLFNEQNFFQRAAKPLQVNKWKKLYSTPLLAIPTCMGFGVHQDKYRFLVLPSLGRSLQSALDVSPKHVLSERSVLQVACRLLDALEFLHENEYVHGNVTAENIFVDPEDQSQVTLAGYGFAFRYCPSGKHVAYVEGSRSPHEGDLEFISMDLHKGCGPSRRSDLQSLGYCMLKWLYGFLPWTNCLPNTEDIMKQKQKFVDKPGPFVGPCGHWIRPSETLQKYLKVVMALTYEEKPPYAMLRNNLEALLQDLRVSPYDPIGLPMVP
Molecule `CCN(CC)CCNC(=O)c1c(C)[nH]c(/C=C2\C(=O)Nc3ccc(Cl)cc32)c1C` [SU-11652] has a ΔTm of 0.3 °C.
Molecule `COc1cc(O)c2c(c1)oc(=O)c1c3cc(O)c(O)cc3oc21` [WEDELOLACTONE] has a ΔTm of -1 °C.
Work on `COc1ccc2c(c1)/C(=C/c1cnc[nH]1)C(=O)N2` [SU-9516] yielded a ΔTm of 0.3 °C.

What follows are molecules tested against Casein kinase I isoform gamma-3 (Homo sapiens) (UniProt Q9Y6M4).
Sequence of Casein kinase I isoform gamma-3 (Homo sapiens) (Q9Y6M4 whole entry, looked up, canonical isoform): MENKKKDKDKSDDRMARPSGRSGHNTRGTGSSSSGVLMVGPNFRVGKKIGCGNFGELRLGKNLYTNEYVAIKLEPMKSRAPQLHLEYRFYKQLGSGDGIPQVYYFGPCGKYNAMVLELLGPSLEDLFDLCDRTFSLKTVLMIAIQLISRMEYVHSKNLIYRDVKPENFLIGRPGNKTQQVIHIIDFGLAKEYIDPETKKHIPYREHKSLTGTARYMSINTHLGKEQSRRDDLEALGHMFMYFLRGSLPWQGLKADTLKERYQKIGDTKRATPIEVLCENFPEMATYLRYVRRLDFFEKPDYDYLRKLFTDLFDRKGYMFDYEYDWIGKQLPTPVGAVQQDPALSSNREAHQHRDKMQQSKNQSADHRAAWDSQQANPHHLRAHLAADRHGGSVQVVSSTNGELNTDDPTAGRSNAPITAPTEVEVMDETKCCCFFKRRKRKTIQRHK
Work on `CCN(CC)CCNC(=O)c1c(C)[nH]c(/C=C2\C(=O)Nc3ccc(Cl)cc32)c1C` [SU-11652] yielded a ΔTm of 3.8 °C.
`COc1cc(O)c2c(c1)oc(=O)c1c3cc(O)c(O)cc3oc21` [WEDELOLACTONE] showed a ΔTm of 1.5 °C.
Work on `COc1ccc2c(c1)/C(=C/c1cnc[nH]1)C(=O)N2` [SU-9516] yielded a ΔTm of 0.5 °C.

Each molecule was assayed against 5'-AMP-activated protein kinase catalytic subunit alpha-2 (Homo sapiens) (UniProt P54646).
For `CCN(CC)CCNC(=O)c1c(C)[nH]c(/C=C2\C(=O)Nc3ccc(Cl)cc32)c1C` [SU-11652], the ΔTm was 7 °C.
With `COc1cc(O)c2c(c1)oc(=O)c1c3cc(O)c(O)cc3oc21` [WEDELOLACTONE] the ΔTm was -0.8 °C.
With `COc1ccc2c(c1)/C(=C/c1cnc[nH]1)C(=O)N2` [SU-9516] the ΔTm was 4.1 °C.

These molecules were tested against Cyclin-dependent kinase 16 (Homo sapiens) (UniProt Q00536).
Sequence of Cyclin-dependent kinase 16 (Homo sapiens) (Q00536 whole entry): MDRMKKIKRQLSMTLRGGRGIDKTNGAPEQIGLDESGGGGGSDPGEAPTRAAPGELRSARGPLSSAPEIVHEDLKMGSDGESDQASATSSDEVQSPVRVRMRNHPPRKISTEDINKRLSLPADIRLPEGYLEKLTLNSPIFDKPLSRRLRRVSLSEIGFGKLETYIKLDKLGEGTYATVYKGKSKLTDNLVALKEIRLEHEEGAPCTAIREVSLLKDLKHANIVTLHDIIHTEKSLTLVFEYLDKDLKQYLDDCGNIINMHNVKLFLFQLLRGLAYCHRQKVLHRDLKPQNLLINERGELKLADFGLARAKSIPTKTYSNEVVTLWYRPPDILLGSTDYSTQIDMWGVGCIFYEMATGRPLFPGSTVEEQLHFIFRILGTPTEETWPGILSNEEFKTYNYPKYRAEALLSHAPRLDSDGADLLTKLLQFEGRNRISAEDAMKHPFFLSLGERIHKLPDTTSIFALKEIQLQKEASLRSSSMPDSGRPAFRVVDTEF
With `CCN(CC)CCNC(=O)c1c(C)[nH]c(/C=C2\C(=O)Nc3ccc(Cl)cc32)c1C` [SU-11652] the ΔTm was 3.5 °C.
`COc1cc(O)c2c(c1)oc(=O)c1c3cc(O)c(O)cc3oc21` [WEDELOLACTONE] gave a ΔTm of 0.1 °C.
Molecule `COc1ccc2c(c1)/C(=C/c1cnc[nH]1)C(=O)N2` [SU-9516] has a ΔTm of 3.3 °C.

What follows are molecules tested against T3, Serine/threonine-protein kinase 17A (Homo sapiens) (UniProt Q9UEE5).
T3 sequence (whole entry): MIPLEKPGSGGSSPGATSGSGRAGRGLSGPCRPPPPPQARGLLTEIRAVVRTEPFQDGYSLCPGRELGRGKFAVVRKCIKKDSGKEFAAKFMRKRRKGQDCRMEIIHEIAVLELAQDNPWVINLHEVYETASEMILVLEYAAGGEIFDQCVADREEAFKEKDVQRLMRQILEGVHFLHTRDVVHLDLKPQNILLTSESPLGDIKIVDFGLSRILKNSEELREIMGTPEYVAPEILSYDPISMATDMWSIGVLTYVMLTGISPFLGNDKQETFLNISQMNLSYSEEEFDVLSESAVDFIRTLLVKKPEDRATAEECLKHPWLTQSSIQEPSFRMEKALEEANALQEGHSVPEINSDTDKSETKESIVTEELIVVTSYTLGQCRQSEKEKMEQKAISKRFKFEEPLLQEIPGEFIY
`CCN(CC)CCNC(=O)c1c(C)[nH]c(/C=C2\C(=O)Nc3ccc(Cl)cc32)c1C` [SU-11652] gave a ΔTm of 11 °C.
`COc1cc(O)c2c(c1)oc(=O)c1c3cc(O)c(O)cc3oc21` [WEDELOLACTONE] gave a ΔTm of 3 °C.
`COc1ccc2c(c1)/C(=C/c1cnc[nH]1)C(=O)N2` [SU-9516] gave a ΔTm of 9.8 °C.

The molecules below were run against Serine/threonine-protein kinase 10 (Homo sapiens) (UniProt O94804).
Sequence of Serine/threonine-protein kinase 10 (Homo sapiens) (O94804 whole entry, looked up): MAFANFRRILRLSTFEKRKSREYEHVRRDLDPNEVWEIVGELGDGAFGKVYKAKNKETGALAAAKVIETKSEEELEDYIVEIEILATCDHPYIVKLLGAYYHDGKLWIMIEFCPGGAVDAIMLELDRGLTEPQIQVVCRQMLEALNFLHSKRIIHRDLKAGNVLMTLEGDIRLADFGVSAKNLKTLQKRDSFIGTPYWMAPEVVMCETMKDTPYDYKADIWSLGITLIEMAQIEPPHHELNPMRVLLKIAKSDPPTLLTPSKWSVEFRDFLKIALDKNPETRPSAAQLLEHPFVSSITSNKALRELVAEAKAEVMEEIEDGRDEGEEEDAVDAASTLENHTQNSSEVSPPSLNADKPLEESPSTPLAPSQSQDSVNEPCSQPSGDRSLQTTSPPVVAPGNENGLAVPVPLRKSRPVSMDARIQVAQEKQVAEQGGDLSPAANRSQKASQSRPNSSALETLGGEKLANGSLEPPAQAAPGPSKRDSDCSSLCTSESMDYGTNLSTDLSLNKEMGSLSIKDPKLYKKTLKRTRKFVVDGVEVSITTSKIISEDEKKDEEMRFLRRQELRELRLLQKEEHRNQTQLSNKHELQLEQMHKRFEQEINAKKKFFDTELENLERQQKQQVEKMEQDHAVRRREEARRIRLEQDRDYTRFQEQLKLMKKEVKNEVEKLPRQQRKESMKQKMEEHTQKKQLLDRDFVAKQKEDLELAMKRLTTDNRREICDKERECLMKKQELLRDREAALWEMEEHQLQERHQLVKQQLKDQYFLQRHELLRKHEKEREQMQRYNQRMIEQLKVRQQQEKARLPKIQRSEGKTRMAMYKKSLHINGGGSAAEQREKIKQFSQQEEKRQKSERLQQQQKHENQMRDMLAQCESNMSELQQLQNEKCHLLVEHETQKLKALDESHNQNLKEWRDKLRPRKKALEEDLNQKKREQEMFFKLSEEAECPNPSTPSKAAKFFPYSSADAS
Work on `CCN(CC)CCNC(=O)c1c(C)[nH]c(/C=C2\C(=O)Nc3ccc(Cl)cc32)c1C` [SU-11652] yielded a ΔTm of 8.1 °C.
Work on `COc1cc(O)c2c(c1)oc(=O)c1c3cc(O)c(O)cc3oc21` [WEDELOLACTONE] yielded a ΔTm of 1.3 °C.
With `COc1ccc2c(c1)/C(=C/c1cnc[nH]1)C(=O)N2` [SU-9516] the ΔTm was 3.5 °C.

What follows are molecules tested against cAMP-dependent protein kinase catalytic subunit alpha (Homo sapiens) (UniProt P17612).
For `CCN(CC)CCNC(=O)c1c(C)[nH]c(/C=C2\C(=O)Nc3ccc(Cl)cc32)c1C` [SU-11652], the ΔTm was 2 °C.
Work on `COc1cc(O)c2c(c1)oc(=O)c1c3cc(O)c(O)cc3oc21` [WEDELOLACTONE] yielded a ΔTm of 2.3 °C.
`COc1ccc2c(c1)/C(=C/c1cnc[nH]1)C(=O)N2` [SU-9516] showed a ΔTm of 1 °C.

The molecules below were run against Tyrosine-protein kinase JAK1 (Homo sapiens) (UniProt P23458).
Sequence of Tyrosine-protein kinase JAK1 (Homo sapiens) (P23458 whole entry): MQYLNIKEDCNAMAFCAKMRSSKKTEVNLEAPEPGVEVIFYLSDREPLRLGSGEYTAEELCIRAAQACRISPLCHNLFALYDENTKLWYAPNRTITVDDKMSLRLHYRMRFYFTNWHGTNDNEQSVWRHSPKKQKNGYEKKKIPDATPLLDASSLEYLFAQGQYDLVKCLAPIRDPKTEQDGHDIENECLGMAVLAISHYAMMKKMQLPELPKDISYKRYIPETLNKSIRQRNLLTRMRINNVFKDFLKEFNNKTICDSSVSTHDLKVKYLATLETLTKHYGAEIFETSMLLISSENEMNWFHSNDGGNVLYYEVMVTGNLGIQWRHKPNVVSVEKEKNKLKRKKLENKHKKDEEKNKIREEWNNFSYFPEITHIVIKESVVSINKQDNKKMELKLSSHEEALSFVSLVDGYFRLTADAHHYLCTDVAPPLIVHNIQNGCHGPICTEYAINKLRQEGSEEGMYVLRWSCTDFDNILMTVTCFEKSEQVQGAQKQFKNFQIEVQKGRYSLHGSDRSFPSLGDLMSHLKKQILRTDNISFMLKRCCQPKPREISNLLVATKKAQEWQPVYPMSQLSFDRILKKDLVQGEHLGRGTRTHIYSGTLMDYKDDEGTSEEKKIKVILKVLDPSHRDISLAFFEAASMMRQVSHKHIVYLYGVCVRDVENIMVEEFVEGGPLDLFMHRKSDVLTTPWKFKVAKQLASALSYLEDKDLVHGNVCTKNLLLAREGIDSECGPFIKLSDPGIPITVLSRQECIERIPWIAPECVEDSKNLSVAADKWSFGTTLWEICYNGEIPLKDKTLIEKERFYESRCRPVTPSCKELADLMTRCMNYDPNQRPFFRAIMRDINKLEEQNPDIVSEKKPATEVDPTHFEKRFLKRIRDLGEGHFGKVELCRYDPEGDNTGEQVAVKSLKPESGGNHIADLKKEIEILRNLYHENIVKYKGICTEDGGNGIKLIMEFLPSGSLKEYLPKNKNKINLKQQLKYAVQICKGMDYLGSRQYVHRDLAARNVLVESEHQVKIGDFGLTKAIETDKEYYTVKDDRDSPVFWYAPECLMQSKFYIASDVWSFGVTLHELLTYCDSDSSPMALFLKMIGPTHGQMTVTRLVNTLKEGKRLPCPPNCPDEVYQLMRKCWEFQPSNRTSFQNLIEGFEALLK
With `CCN(CC)CCNC(=O)c1c(C)[nH]c(/C=C2\C(=O)Nc3ccc(Cl)cc32)c1C` [SU-11652] the ΔTm was 9.7 °C.
With `COc1cc(O)c2c(c1)oc(=O)c1c3cc(O)c(O)cc3oc21` [WEDELOLACTONE] the ΔTm was 2.2 °C.
Work on `COc1ccc2c(c1)/C(=C/c1cnc[nH]1)C(=O)N2` [SU-9516] yielded a ΔTm of 8.4 °C.

What follows are molecules tested against Serine/threonine-protein kinase 38 (Homo sapiens) (UniProt Q15208).
`CCN(CC)CCNC(=O)c1c(C)[nH]c(/C=C2\C(=O)Nc3ccc(Cl)cc32)c1C` [SU-11652] was tested, and the ΔTm was 2.7 °C.
`COc1cc(O)c2c(c1)oc(=O)c1c3cc(O)c(O)cc3oc21` [WEDELOLACTONE] showed a ΔTm of 0.5 °C.
With `COc1ccc2c(c1)/C(=C/c1cnc[nH]1)C(=O)N2` [SU-9516] the ΔTm was 3.4 °C.
